Measured values from patent US20250230193A1, “CYCLIC COMPOUND HAVING SELECTIVE KRAS INHIBITORY EFFECT ON HRAS AND NRAS” (CHUGAI SEIYAKU KABUSHIKI KAISHA, priority 2022, published 2025).

Key:
[1] = target: GDP-bound HRAS wild-type protein (Homo sapiens, UniProt P01112); assay: Binding to HRAS by surface plasmon resonance (SPR), Single Cycle Kinetics; conditions: for HRAS/KRAS (ratio of KD value for HRAS to KD value for KRAS) / HRAS/KRAS (ratio of KD value with respect to HRAS to KD value with respect to KRAS): GDP-bound HRAS wild-type vs GDP-bound KRAS wild-type
Chain of GDP-bound HRAS wild-type protein (P01112 whole entry): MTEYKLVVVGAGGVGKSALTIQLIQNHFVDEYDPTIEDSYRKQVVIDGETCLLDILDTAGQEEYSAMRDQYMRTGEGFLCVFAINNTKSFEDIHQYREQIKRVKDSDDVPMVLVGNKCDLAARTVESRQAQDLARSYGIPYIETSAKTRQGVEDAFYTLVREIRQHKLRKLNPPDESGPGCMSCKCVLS

[2] = target: GDP-bound NRAS wild-type protein (Homo sapiens, UniProt P01111); assay: Binding to NRAS by surface plasmon resonance (SPR), Single Cycle Kinetics; conditions: for NRAS/KRAS (ratio of KD value for NRAS to KD value for KRAS) / NRAS/KRAS (ratio of KD value with respect to NRAS to KD value with respect to KRAS): GDP-bound NRAS wild-type vs GDP-bound KRAS wild-type
Chain of GDP-bound NRAS wild-type protein (P01111 whole entry): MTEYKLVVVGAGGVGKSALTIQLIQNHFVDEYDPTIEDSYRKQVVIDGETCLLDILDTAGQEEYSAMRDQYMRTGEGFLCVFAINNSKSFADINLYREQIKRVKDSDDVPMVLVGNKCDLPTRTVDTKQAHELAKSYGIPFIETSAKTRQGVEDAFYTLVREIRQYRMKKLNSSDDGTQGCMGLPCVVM

Compound: CCC[C@H]1C(=O)N[C@@H]([C@@H](C)CC)C(=O)N(C)CC(=O)N(C)[C@H]2C/C=C\CCN(C2=O)[C@@H](Cc2ccc(C(F)(F)F)cc2)C(=O)N(C)CC(=O)N[C@@H](CCc2ccc(C(F)(F)F)c(OC)c2)C(=O)N2C[C@H](OCC)C[C@H]2C(=O)NC2(CC(C)(C)C2)C(=O)N(C)[C@@H](CC2CC2)C(=O)N(C)[C@H](C(=O)N(C)C)CC(=O)N1C [PP2809]
- HRAS/KRAS (ratio of KD value with respect to GDP-bound HRAS wild-type protein to KD value with respect to KRAS) ([1]; class symbols): A (a compound having 10 or more and less than 20 is denoted as A)
- NRAS/KRAS (ratio of KD value with respect to GDP-bound NRAS wild-type protein to KD value with respect to KRAS) ([2]; class symbols): A (a compound having 10 or more and less than 20 is denoted as A)

Compound: CC[C@H](C)[C@@H]1NC(=O)[C@H](CC(C)C)N(C)C(=O)C[C@@H](C(=O)N(C)C)N(C)C(=O)[C@H](C2CCCC2)N(C)C(=O)C2(CCCC2)NC(=O)[C@@H]2CCCN2C(=O)[C@H](CCc2cc(F)c(C(F)(F)F)c(F)c2)NC(=O)CN(C)C(=O)[C@H](Cc2ccc(C(F)(F)F)cc2)N2CCCCC[C@@H](C2=O)N(C)C(=O)CN(CC)C1=O [PP0514]
- HRAS/KRAS (ratio of KD value with respect to GDP-bound HRAS wild-type protein to KD value with respect to KRAS) ([1]; SPR): B (a compound having 3 or more and less than 10 is denoted as B)
- NRAS/KRAS (ratio of KD value with respect to GDP-bound NRAS wild-type protein to KD value with respect to KRAS) ([2]; SPR): B (a compound having 3 or more and less than 10 is denoted as B)

Compound: CCO[C@@H]1C[C@H]2C(=O)NC3(CCC(F)(F)CC3)C(=O)N(C)[C@@H](C3CCCC3)C(=O)N(C)[C@H](C(=O)N(C)C)CC(=O)N(C)[C@@H](C)C(=O)N[C@@H]([C@@H](C)CC)C(=O)N(C)CC(=O)N(C)[C@H]3CCCCCN(C3=O)[C@@H](Cc3ccc(C(F)(F)F)cc3)C(=O)N(C)CC(=O)N[C@@H](CCc3cc(F)c(C(F)(F)F)c(F)c3)C(=O)N2C1 [PP0725]
- HRAS/KRAS (ratio of KD value with respect to GDP-bound HRAS wild-type protein to KD value with respect to KRAS) ([1]; SPR): B (a compound having 3 or more and less than 10 is denoted as B)
- NRAS/KRAS (ratio of KD value with respect to GDP-bound NRAS wild-type protein to KD value with respect to KRAS) ([2]; SPR): B (a compound having 3 or more and less than 10 is denoted as B)

Compound: CCC[C@H]1C(=O)N[C@@H]([C@@H](C)CC)C(=O)N(C)CC(=O)N(C)[C@H]2C/C=C\CCN(C2=O)[C@@H](Cc2ccc(C(F)(F)F)cc2)C(=O)N(C)CC(=O)N[C@@H](CCc2cc(F)c(C(F)(F)F)c(F)c2)C(=O)N(C)[C@@H](COC)C(=O)NC2(CC(C)(C)C2)C(=O)N(C)[C@@H](C2CCCC2)C(=O)N(C)[C@H](C(=O)N(C)C)CC(=O)N1C [PP1936]
- HRAS/KRAS (ratio of KD value for HRAS to KD value for KRAS) ([1]; KD ratio, SPR): A (a compound having 10 or more and less than 20 is denoted as A)
- NRAS/KRAS (ratio of KD value for NRAS to KD value for KRAS) ([2]; KD ratio, SPR): AA (a compound having 20 or more is denoted as AA)

Compound: CCO[C@@H]1C[C@H]2C(=O)NC3(CC(C)(C)C3)C(=O)N(C)[C@@H](C3CCCC3)C(=O)N(C)[C@H](C(=O)N(C)C)CC(=O)N(C)[C@@H](CC3CC3)C(=O)N[C@@H]([C@@H](C)CC)C(=O)N(C)CC(=O)N(C)[C@H]3C/C=C\CCN(C3=O)[C@@H](Cc3ccc(C(F)(F)F)cc3)C(=O)N(C)CC(=O)N[C@@H](CCc3ccc(C(F)(F)F)c(Cl)c3)C(=O)N2C1 [PP1749]
- HRAS/KRAS (ratio of KD value for HRAS to KD value for KRAS) ([1]; KD ratio, SPR): A (a compound having 10 or more and less than 20 is denoted as A)
- NRAS/KRAS (ratio of KD value for NRAS to KD value for KRAS) ([2]; KD ratio, SPR): A (a compound having 10 or more and less than 20 is denoted as A)

Compound: CCC(CC)[C@H]1C(=O)N(C)[C@H](C(=O)N(C)C)CC(=O)N(C)[C@@H](COC)C(=O)N[C@@H]([C@@H](C)CC)C(=O)N(C)CC(=O)N(C)[C@H]2C/C=C\CCN(C2=O)[C@@H](Cc2ccc(C)cc2)C(=O)N(C)CC(=O)N[C@@H](CCc2ccc(Cl)c(Cl)c2)C(=O)N2C[C@H](OC(C)C)C[C@H]2C(=O)N(C)C2(CC(C)(C)C2)C(=O)N1C [PP2814]
- HRAS/KRAS (ratio of KD value with respect to GDP-bound HRAS wild-type protein to KD value with respect to KRAS) ([1]; class symbols): A (a compound having 10 or more and less than 20 is denoted as A)
- NRAS/KRAS (ratio of KD value with respect to GDP-bound NRAS wild-type protein to KD value with respect to KRAS) ([2]; class symbols): AA (a compound having 20 or more is denoted as AA)

Compound: C#CCN1CC(=O)N(C)[C@H]2C/C=C\CCN(C2=O)[C@@H](Cc2ccc(C(F)(F)F)cc2)C(=O)N(C)CC(=O)N[C@@H](CCc2cc(F)c(C(F)(F)F)c(F)c2)C(=O)N2C[C@H](OCC)C[C@H]2C(=O)NC2(CC(C)(C)C2)C(=O)N(C)[C@@H](C2CCCC2)C(=O)N(C)[C@H](C(=O)N(C)C)CC(=O)N(C)[C@@H](CCC)C(=O)N[C@@H]([C@@H](C)CC)C1=O [PP2103]
- HRAS/KRAS (ratio of KD value with respect to HRAS to KD value with respect to KRAS) ([1]; SPR): A (a compound having 10 or more and less than 20 is denoted as A)
- NRAS/KRAS (ratio of KD value with respect to NRAS to KD value with respect to KRAS) ([2]; SPR): A (a compound having 10 or more and less than 20 is denoted as A)

Compound: CCO[C@@H]1C[C@H]2C(=O)NC3(CCC3)C(=O)N(C)[C@@H](C3CCCC3)C(=O)N(C)[C@H](C(=O)N(C)C)CC(=O)N(C)[C@@H](Cc3cccc(F)c3)C(=O)N[C@@H]([C@@H](C)CC)C(=O)N(C)CC(=O)N(C)[C@H]3CCCCCN(C3=O)[C@@H](Cc3ccc(C(F)(F)F)cc3)C(=O)N(C)CC(=O)N[C@@H](CCc3cc(F)c(C(F)(F)F)c(F)c3)C(=O)N2C1 [PP0935]
- HRAS/KRAS (ratio of KD value with respect to HRAS to KD value with respect to KRAS) ([1]; KD ratio, SPR): B (a compound having 3 or more and less than 10 is denoted as B)
- NRAS/KRAS (ratio of KD value with respect to NRAS to KD value with respect to KRAS) ([2]; KD ratio, SPR): B (a compound having 3 or more and less than 10 is denoted as B)
